Measured values taken from patent US20260027117A1, “METHODS OF TREATING SMALL CELL LUNG CANCER” (Debiopharm International S.A., priority 2022, published 2026).

Assays:
[1] = tested on: NCI-H446 SCLC tumor cells; assay: NCI-H446 CDX model, tumor growth inhibition; type: in vivo, Balb/c nude mice; conditions: 16 day cycle; for TGI effects compared to vehicle: monotherapy, Compound of formula (I) 30 mg/kg QD 3 consecutive days a week P.O., carboplatin 50 mg/kg QW I.V.
Experimental: (§1) Female Balb/c nude mice were inoculated subcutaneously with 5×10^6 NCI-H446 SCLC tumor cells. Animals were randomized when tumor volume reached approximately 100-150 mm^3. Animals were treated with vehicle (0.5% methycellulose, 1% Tween 80 P.O. and saline I.V.), Compound of formula (I) formulated as a suspension in 0.5% methycellulose and 1% Tween 80 (30 mg/kg QD, 3 consecutive days a week, P.O.), or Carboplatin (50 mg/kg QW, I.V.) administered over a 16 day cycle, either alone or in combination (5 animals per group). In combination arms, Compound of formula (I) was administered 2 hours prior to chemotherapy. Tumor growth was monitored twice weekly by caliper measurement and tumor volume calculated using the equation V=(L×W×W)/2, where V is tumor volume, L is tumor length (the longest tumor dimension) and W is tumor width (the longest tumor dimension perpendicular to L). During routine monitoring, the animals were checked for any effects of tumor growth and treatments on behavior such as mobility, food and water consumption, body weight gain/loss 3 times a week, eye/hair matting and any other abnormalities. Mortality and observed clinical signs were recorded for individual animals.

[2] = tested on: SCLC organoids; assay: SCLC organoid models, Cell Titer Glow 3D viability and Bliss synergy; type: cell-based; conditions: for bliss synergy score: vs carboplatin/etoposide (5:1 ratio) as a single treatment
Experimental: SCLC organoids from 16 models were prepared as follows: SCLC organoid models were expanded in 6-well plates, each well containing 2 ml of organoid medium. On the day of organoid seeding 20 μL 100× Dispase solution was added to each well and the plates were incubated at 37° C. for 30 min. Organoids were passed through a pre-wet 100 μm filter into a 50 ml plastic tube and subsequently further filtered through a wet 20 μm filter. Organoids were resuspended in culture media and counted. Matrigel was added to a final concentration of 5% v/v and 40 μL of cell suspensions add to each well of a 384-well plate by Multidrop dispenser.
The treatments tested for each organoid model were as follows: • (a) Compound of Formula (I) in monotherapy, • (b) carboplatin and etoposide (in a 5:1 ratio, considered as a single treatment), or • (c) Compound of Formula (I) in combination with carboplatin and etoposide, using the following concentrations in a matrix format: compound of Formula (I) in 6 concentrations from 0.047 to 1.5 μM, carboplatin in 6 concentrations from 0.156 to 5 μM, and etoposide in 6 concentrations from 0.031 to 1 μM)). Thus, for the carboplatin and etoposide treatment (considered as a single treatment in this experiment), the lowest concentration of carboplatin was combined with the lowest concentration of etoposide in a 5:1 ratio, the 2nd lowest doses of both reagents were combined, etc., while maintaining the 5:1 ratio. Then, each of these combinations were used either alone (carboplatin/etoposide treatment) or in further combination with each concentration of Compound of Formula (I).
The screening plates were incubated with treatments for 5 days. All treatments were performed in technical triplicates and biological replicates.
Plates were assayed for luminescent Cell Titer Glow (CTG) signal by adding 40 μL of CTG 3D per well by Multidrop dispenser, mixing for 5 mins and incubating for 30 min at room temperature in the dark. Luminescence signal was then measured on Envision plate reader.
The surviving and inhibition rates were calculated as follows for each treatment: […]
For synergy calculations and creation of heatmaps, the Bliss independence model was used on synergyfinder.org (Zheng, S.; Wang, W.; Aldahdooh, J.; Malyutina, A.; Shadbahr, T.; Tanoli Z; Pessia, A.; Jing, T. SynergyFinder Plus: Toward Better Interpretation and Annotation of Drug Combination Screening Datasets. Genomics, Proteomics & Bioinformatics 2022, in press. doi:10.1016/j.gpb.2022.01.004) considering carboplatin/etoposide as a single treatment vs Compound of Formula (I). 9 out of 16 models had bliss synergy scores >5 between Compound of Formula (I) and the carboplatin/etoposide treatment. […]

[3] = NCI-H1048 CDX model, tolerability (body weight); type: in vivo
Experimental: (§2) Female Balb/c nude mice were inoculated subcutaneously with 5×10^6 NCI-H1048 SCLC tumor cells. Animals were randomized when tumor volume reached approximately 100-150 mm^3. Animals were treated with vehicle (0.5% methycellulose, 1% Tween 80 P.O. and saline I.V.), Compound of formula (I) formulated as a suspension in 0.5% methycellulose and 1% Tween 80 (30 mg/kg QD, P.O.), Carboplatin (50 mg/kg QW, I.V.) or etoposide (25 mg/kg or 12.5 mg/kg QW, I.P.), administered over a 21 day cycle, either alone or in combination (8 animals per group in double combination studies; 10 animals per group in triple combination study). In combination arms, Compound of formula (I) was administered 2 hours prior to chemotherapy. Tumor growth was monitored twice weekly by caliper measurement and tumor volume calculated using the equation V=(L×W×W)/2, where V is tumor volume, L is tumor length (the longest tumor dimension) and W is tumor width (the longest tumor dimension perpendicular to L). During routine monitoring, the animals were checked for any effects of tumor growth and treatments on behavior such as mobility, food and water consumption, body weight gain/loss 3 times a week, eye/hair matting and any other abnormalities. Mortality and observed clinical signs were recorded for individual animals.

[4] = SC6 PDX model, tolerability (body weight); type: in vivo; conditions: in combination with etoposide
Experimental: (§3) Female athymic nude mice were inoculated subcutaneously with tumor fragments from SC6 PDX tumors. Animals were randomized when tumor volume reached approximately 60-200 mm^3. Animals were treated with vehicle (0.5% methycellulose, 1% Tween 80 P.O. and saline I.V.), Compound of formula (I) formulated as a suspension in 0.5% methycellulose and 1% Tween 80 (30 mg/kg QD, P.O.), Carboplatin (25 mg/kg QW, I.P.) or etoposide (6 mg/kg QD [3 d on/4 d off], I.P.), administered over a 21 day cycle either alone or in combination (7 animals per group). In combination arms, Compound of formula (I) was administered 2 hours prior to chemotherapy. Tumor growth was monitored twice weekly by caliper measurement and tumor volume calculated using the equation V=(L×W×W)/2, where V is tumor volume, L is tumor length (the longest tumor dimension) and W is tumor width (the longest tumor dimension perpendicular to L). During routine monitoring, the animals were checked for any effects of tumor growth and treatments on behavior such as mobility, food and water consumption, body weight gain/loss 3 times a week, eye/hair matting and any other abnormalities. Mortality and observed clinical signs were recorded for individual animals.

[5] = tested on: SC6 PDX tumors; assay: SC6 patient derived xenograft (PDX) model, tumor growth inhibition; type: in vivo, athymic nude mice; conditions: for tumor growth inhibition (TGI): 30 mg/kg QD P.O. in combination with etoposide 6 mg/kg QD [3 d on/4 d off] I.P., compared to vehicle control
Experimental: as §3

[6] = tested on: NCI-H1048 SCLC tumor cells; assay: NCI-H1048 cell line-derived xenograft (CDX) model, tumor growth inhibition; type: in vivo, Balb/c nude mice
Experimental: as §2

[7] = tested on: NCI-H446 tumor cells; assay: In vitro synergy, CellTiter-Glo viability assay with Bliss synergy method; type: cell-based; conditions: in combination with carboplatin, 72 hours, 9 doses, 0-10 uM and carboplatin 0-300 uM, Bliss score >5 demonstrates synergy
Experimental: NCI-H446 tumor cells were plated at a density of 5000 cells/90 ul in 96 well plates. Cells were treated with Compound of formula (I) and/or carboplatin, either alone or in combination with 9 different doses (3-fold serial dilutions starting at 10 uM for Compound of formula (I) and 300 uM for carboplatin) for 72 hours.

[8] = NCI-H446 CDX model, tolerability (body weight); type: in vivo; conditions: in combination with carboplatin 50 mg/kg QW I.V.; 16 day cycle
Experimental: as §1

[9] = tested on: SCLC; conditions: SCLC patients; in combination with olaparib, or with carboplatin in platinum-refractory SCLC (BALTIC study, Arm B, NCT02937818); preliminary data; cited from earlier work
[10] = triple combination with carboplatin and etoposide

Compound: Cc1cc(Nc2ncc3c(n2)N(C)CN(c2c(Cl)cccc2Cl)C3=O)ccc1C1CCN(C)CC1 [Compound of formula (I)]
- tumor growth inhibition (TGI) ([1]; 30 mg/kg QD 3 consecutive days a week P.O. in combination with carboplatin 50 mg/kg QW I.V., compared to vehicle, p=0.028): 67%
- TGI effects compared to vehicle [1]: no significant TGI effects
- IC50 ([2]; 120 h, monotherapy, 5 days, in 12 out of 16 SCLC organoids): < 1.5 µM
- inhibition at 1.5 µM ([2]; monotherapy, at 1.5 uM (highest dose tested), in 12 out of 16 SCLC organoids, read-out: maximum inhibition rate (cell death rate)): > 60%
- bliss synergy score ([2]; 5 days, in 5 of these models (FIG. 8), highly significant): > 10
- bliss synergy score ([2]; 5 days, in 9 out of 16 SCLC organoid models): > 5
- body weight loss ([3]; in combination with carboplatin 50 mg/kg QW I.V.): No significant body weight loss
- body weight loss ([3]; in combination with etoposide QW I.P.): No significant body weight loss
- body weight loss ([3]; monotherapy 30 mg/kg QD P.O., 21 day cycle): No significant body weight loss
- body weight loss [3, 10]: No significant body weight loss
- tolerability [3, 10]: well tolerated
- tolerability [4]: well tolerated
- body weight loss ([4]; immediately following treatment, all animals recovered quickly): some transient body weight losses
- tumor growth inhibition (TGI) ([5]; day 7): 34%
- tumor growth inhibition (TGI) ([5]; day 11, p=0.012): 61%
- mice remaining below the maximum tumor volume ethical criteria at end of treatment ([5]; in combination with etoposide, end of treatment (21 days), 7 animals per group): 4/7
- tumor growth inhibition (TGI) ([6]; 30 mg/kg QD P.O. in combination with carboplatin 50 mg/kg QW I.V., 21 day cycle, vs vehicle controls, p=0.0026): about 68%
- tumor growth inhibition (TGI) ([6]; 30 mg/kg QD P.O. in combination with etoposide (25 mg/kg or 12.5 mg/kg QW I.P.), 21 day cycle, vs vehicle controls, p=0.00015): ~78%
- tumor growth inhibition (TGI) ([6]; monotherapy 30 mg/kg QD P.O., 21 day cycle, vs vehicle, p=0.016): up to 54%
- tumor growth inhibition (TGI) ([6]; triple combination with carboplatin (50 mg/kg) and etoposide (12.5 mg/kg), compared to carboplatin and etoposide combination, p=0.0043): 44%
- tumor growth inhibition (TGI) ([6]; triple combination with carboplatin (50 mg/kg) and etoposide (12.5 mg/kg), compared to vehicle controls, p<0.0001): 72%
- tumor response ([6]; triple combination with carboplatin and etoposide, compared to carboplatin and etoposide treatments alone or to the double combination): significantly improved tumor response
- synergistic antitumor activity (Bliss synergy) [7]: strong synergistic antitumor activity
- body weight loss [8]: No significant body weight loss

Compound: C=CCn1c(=O)c2cnc(Nc3ccc(N4CCN(C)CC4)cc3)nc2n1-c1cccc(C(C)(C)O)n1 [adavosertib]
- antitumor activity [9]: limited antitumor activity

Compound: N.N.O=C([O-])C1(C(=O)[O-])CCC1.[Pt+2] [carboplatin, reference compound]
- TGI effects compared to vehicle [1]: no significant TGI effects
